According to ChEMBL document CHEMBL3871297, “Squarate-based carbocyclic nucleosides: Syntheses, computational analyses and anticancer/antiviral evaluation” (2017):

Experiments:
Assay type in all cases: functional
[1] = Cytotoxicity against human SF539 cells assessed as cell growth at 10 uM after 2 days by SRB assay relative to control; conditions: SF-539, 48 h, read-out: Activity
[2] = Cytotoxicity against human SF295 cells assessed as cell growth at 10 uM after 2 days by SRB assay relative to control; conditions: SF-295, 48 h, read-out: Activity
[3] = Cytotoxicity against human SF268 cells assessed as cell growth at 10 uM after 2 days by SRB assay relative to control; conditions: SF-268, 48 h, read-out: Activity
[4] = Cytotoxicity against human UACC62 cells assessed as cell growth at 10 uM after 2 days by SRB assay relative to control; conditions: UACC-62, 48 h, read-out: Activity
[5] = Cytotoxicity against human UACC257 cells assessed as cell growth at 10 uM after 2 days by SRB assay relative to control; conditions: UACC-257, 48 h, read-out: Activity
[6] = Cytotoxicity against human SK-MEL-5 cells assessed as cell growth at 10 uM after 2 days by SRB assay relative to control; conditions: SK-MEL-5, 48 h, read-out: Activity
[7] = Cytotoxicity against human SK-MEL-28 cells assessed as cell growth at 10 uM after 2 days by SRB assay relative to control; conditions: SK-MEL-28, 48 h, read-out: Activity
[8] = Cytotoxicity against human MALME-3M cells assessed as cell growth at 10 uM after 2 days by SRB assay relative to control; conditions: 48 h, read-out: Activity
[9] = Cytotoxicity against human M14 cells assessed as cell growth at 10 uM after 2 days by SRB assay relative to control; conditions: M14, 48 h, read-out: Activity
[10] = Cytotoxicity against human LOXIMVI cells assessed as cell growth at 10 uM after 2 days by SRB assay relative to control; conditions: LOX IMVI, 48 h, read-out: Activity
[11] = Cytotoxicity against human UO31 cells assessed as cell growth at 10 uM after 2 days by SRB assay relative to control; conditions: UO-31, 48 h, read-out: Activity
[12] = Cytotoxicity against human TK10 cells assessed as cell growth at 10 uM after 2 days by SRB assay relative to control; conditions: TK-10, 48 h, read-out: Activity
[13] = Cytotoxicity against human ACHN cells assessed as cell growth at 10 uM after 2 days by SRB assay relative to control; conditions: 48 h, read-out: Activity
[14] = Cytotoxicity against human 786-0 cells assessed as cell growth at 10 uM after 2 days by SRB assay relative to control; conditions: 786-0, 48 h, read-out: Activity
[15] = Cytotoxicity against human K562 cells assessed as cell growth at 10 uM after 2 days by SRB assay relative to control; conditions: K562, 48 h, read-out: Activity
[16] = Cytotoxicity against human HL-60(TB) cells assessed as cell growth at 10 uM after 2 days by SRB assay relative to control; conditions: HL-60, 48 h, read-out: Activity
[17] = Cytotoxicity against human CCRF-CEM cells assessed as cell growth at 10 uM after 2 days by SRB assay relative to control; conditions: 48 h, read-out: Activity
[18] = Cytotoxicity against human SKOV3 cells assessed as cell growth at 10 uM after 2 days by SRB assay relative to control; conditions: SK-OV-3, 48 h, read-out: Activity
[19] = Cytotoxicity against human OVCAR8 cells assessed as cell growth at 10 uM after 2 days by SRB assay relative to control; conditions: OVCAR-8, 48 h, read-out: Activity
[20] = Cytotoxicity against human NCI/ADR-RES cells assessed as cell growth at 10 uM after 2 days by SRB assay relative to control; conditions: 48 h, read-out: Activity
[21] = Cytotoxicity against human MDA-MB-435 cells assessed as cell growth at 10 uM after 2 days by SRB assay relative to control; conditions: MDA-MB-435, 48 h, read-out: Activity
[22] = Cytotoxicity against human MCF7 cells assessed as cell growth at 10 uM after 2 days by SRB assay relative to control; conditions: MCF7, 48 h, read-out: Activity
[23] = Cytotoxicity against human Hs 578T cells assessed as cell growth at 10 uM after 2 days by SRB assay relative to control; conditions: 48 h, read-out: Activity
[24] = Cytotoxicity against human SW620 cells assessed as cell growth at 10 uM after 2 days by SRB assay relative to control; conditions: SW-620, 48 h, read-out: Activity
[25] = Cytotoxicity against human KM12 cells assessed as cell growth at 10 uM after 2 days by SRB assay relative to control; conditions: KM12, 48 h, read-out: Activity
[26] = Cytotoxicity against human HT-29 cells assessed as cell growth at 10 uM after 2 days by SRB assay relative to control; conditions: HT-29, 48 h, read-out: Activity
[27] = Cytotoxicity against human HCT15 cells assessed as cell growth at 10 uM after 2 days by SRB assay relative to control; conditions: HCT-15, 48 h, read-out: Activity
[28] = Cytotoxicity against human HCT116 cells assessed as cell growth at 10 uM after 2 days by SRB assay relative to control; conditions: HCT-116, 48 h, read-out: Activity
[29] = Cytotoxicity against human HCC2998 cells assessed as cell growth at 10 uM after 2 days by SRB assay relative to control; conditions: HCC 2998, 48 h, read-out: Activity
[30] = Cytotoxicity against human COLO205 cells assessed as cell growth at 10 uM after 2 days by SRB assay relative to control; conditions: COLO 205, 48 h, read-out: Activity
[31] = Cytotoxicity against human NCI-H522 cells assessed as cell growth at 10 uM after 2 days by SRB assay relative to control; conditions: NCI-H522, 48 h, read-out: Activity
[32] = Cytotoxicity against human NCI-H460 cells assessed as cell growth at 10 uM after 2 days by SRB assay relative to control; conditions: NCI-H460, 48 h, read-out: Activity
[33] = Cytotoxicity against human NCI-H23 cells assessed as cell growth at 10 uM after 2 days by SRB assay relative to control; conditions: NCI-H23, 48 h, read-out: Activity
[34] = Cytotoxicity against human NCI-H226 cells assessed as cell growth at 10 uM after 2 days by SRB assay relative to control; conditions: NCI-H226, 48 h, read-out: Activity
[35] = Cytotoxicity against human HOP92 cells assessed as cell growth at 10 uM after 2 days by SRB assay relative to control; conditions: HOP-92, 48 h, read-out: Activity
[36] = Cytotoxicity against human HOP62 cells assessed as cell growth at 10 uM after 2 days by SRB assay relative to control; conditions: HOP-62, 48 h, read-out: Activity
[37] = Cytotoxicity against human EKVX cells assessed as cell growth at 10 uM after 2 days by SRB assay relative to control; conditions: 48 h, read-out: Activity
[38] = Cytotoxicity against human SNB19 cells assessed as cell growth at 10 uM after 2 days by SRB assay relative to control; conditions: SNB-19, 48 h, read-out: Activity

## Nc1c(N[C@H]2C=C[C@@H](CO)C2)c(=O)c1=O
[1]
  growth at 10 µM: 98.3%
[2]
  growth at 10 µM: 128%
[3]
  growth at 10 µM: 165%
[4]
  growth at 10 µM: 98.3%
[5]
  growth at 10 µM: 97.7%
[6]
  growth at 10 µM: 104%
[7]
  growth at 10 µM: 128%
[8]
  growth at 10 µM: 100%
[9]
  growth at 10 µM: 101%
[10]
  growth at 10 µM: 96.4%
[11]
  growth at 10 µM: 84.6%
[12]
  growth at 10 µM: 115%
[13]
  growth at 10 µM: 103%
[14]
  growth at 10 µM: 106%
[15]
  growth at 10 µM: 99.6%
[16]
  growth at 10 µM: 96.7%
[17]
  growth at 10 µM: 89.3%
[18]
  growth at 10 µM: 112%
[19]
  growth at 10 µM: 92.8%
[20]
  growth at 10 µM: 108%
[21]
  growth at 10 µM: 114%
[22]
  growth at 10 µM: 101%
[23]
  growth at 10 µM: 129%
[24]
  growth at 10 µM: 105%
[25]
  growth at 10 µM: 122%
[26]
  growth at 10 µM: 110%
[27]
  growth at 10 µM: 103%
[28]
  growth at 10 µM: 108%
[29]
  growth at 10 µM: 107%
[30]
  growth at 10 µM: 121%
[31]
  growth at 10 µM: 90.1%
[32]
  growth at 10 µM: 104%
[33]
  growth at 10 µM: 111%
[34]
  growth at 10 µM: 107%
[35]
  growth at 10 µM: 104%
[36]
  growth at 10 µM: 96.4%
[37]
  growth at 10 µM: 121%
[38]
  growth at 10 µM: 110%

## O=c1c(O)c(N[C@H]2C=C[C@@H](CO)C2)c1=O
[1]
  growth at 10 µM: 114%
[2]
  growth at 10 µM: 73.5%
[3]
  growth at 10 µM: 117%
[4]
  growth at 10 µM: 118%
[5]
  growth at 10 µM: 100%
[6]
  growth at 10 µM: 106%
[7]
  growth at 10 µM: 140%
[8]
  growth at 10 µM: 115%
[9]
  growth at 10 µM: 111%
[10]
  growth at 10 µM: 117%
[11]
  growth at 10 µM: 103%
[12]
  growth at 10 µM: 132%
[13]
  growth at 10 µM: 108%
[14]
  growth at 10 µM: 102%
[15]
  growth at 10 µM: 104%
[16]
  growth at 10 µM: 100%
[17]
  growth at 10 µM: 116%
[18]
  growth at 10 µM: 109%
[19]
  growth at 10 µM: 107%
[20]
  growth at 10 µM: 116%
[21]
  growth at 10 µM: 120%
[22]
  growth at 10 µM: 107%
[23]
  growth at 10 µM: 146%
[24]
  growth at 10 µM: 112%
[25]
  growth at 10 µM: 116%
[26]
  growth at 10 µM: 105%
[27]
  growth at 10 µM: 134%
[28]
  growth at 10 µM: 108%
[29]
  growth at 10 µM: 106%
[30]
  growth at 10 µM: 134%
[31]
  growth at 10 µM: 91.6%
[32]
  growth at 10 µM: 114%
[33]
  growth at 10 µM: 107%
[34]
  growth at 10 µM: 157%
[35]
  growth at 10 µM: 121%
[36]
  growth at 10 µM: 101%
[37]
  growth at 10 µM: 129%
[38]
  growth at 10 µM: 105%

## COc1c(N[C@H]2C=C[C@@H](CO)C2)c(=O)c1=O
[1]
  growth at 10 µM: 101%
[2]
  growth at 10 µM: 118%
[3]
  growth at 10 µM: 112%
[4]
  growth at 10 µM: 101%
[5]
  growth at 10 µM: 89%
[6]
  growth at 10 µM: 103%
[7]
  growth at 10 µM: 125%
[8]
  growth at 10 µM: 109%
[9]
  growth at 10 µM: 97.1%
[10]
  growth at 10 µM: 97.8%
[11]
  growth at 10 µM: 88.3%
[12]
  growth at 10 µM: 105%
[13]
  growth at 10 µM: 104%
[14]
  growth at 10 µM: 98.5%
[15]
  growth at 10 µM: 111%
[16]
  growth at 10 µM: 96.4%
[17]
  growth at 10 µM: 108%
[18]
  growth at 10 µM: 110%
[19]
  growth at 10 µM: 94.6%
[20]
  growth at 10 µM: 107%
[21]
  growth at 10 µM: 118%
[22]
  growth at 10 µM: 94.2%
[23]
  growth at 10 µM: 114%
[24]
  growth at 10 µM: 105%
[25]
  growth at 10 µM: 87.7%
[26]
  growth at 10 µM: 113%
[27]
  growth at 10 µM: 111%
[28]
  growth at 10 µM: 95.7%
[29]
  growth at 10 µM: 107%
[30]
  growth at 10 µM: 141%
[31]
  growth at 10 µM: 86.5%
[32]
  growth at 10 µM: 105%
[33]
  growth at 10 µM: 108%
[34]
  growth at 10 µM: 105%
[35]
  growth at 10 µM: 111%
[36]
  growth at 10 µM: 96%
[37]
  growth at 10 µM: 125%
[38]
  growth at 10 µM: 106%
